The source of these data is ChEMBL document CHEMBL3853262 (Medchemcomm, 2016).

Common to all, as to format: functional, cell-based
Assay [1] concerns BJ. As to the kind of experiment: Proapoptotic activity in human BJ cells by annexin V-FITC/propidium iodide staining-based capillary cytometric method.
Assay [2] concerns ASPC1. As to the kind of experiment: Proapoptotic activity in human AsPC1 cells by annexin V-FITC/propidium iodide staining-based capillary cytometric method.
The test system of assay [3] is BXPC-3. As to the kind of experiment: Proapoptotic activity in human BxPC3 cells by annexin V-FITC/propidium iodide staining-based capillary cytometric method.
Assay [4] has as its system NTERA-2-cl-D1. As to the kind of experiment: Proapoptotic activity in human NT2/D1 cells by annexin V-FITC/propidium iodide staining-based capillary cytometric method.

What is called EC50 is the concentration needed to bring the measured effect to its halfway point. A lower EC50 goes with greater potency.

For the compound `Nc1nc(-c2cccc(NC(=O)c3cc4cc(F)ccc4[nH]3)c2)c[nH]1`, the EC50 in assay [1] came to 16 µM; in assay [2], 27 µM; in assay [3], 28 µM; in assay [4], 13 µM.
On to `COc1ccc2[nH]c(C(=O)Nc3cccc(-c4c[nH]c(N)n4)c3)cc2c1`, for which the EC50 in assay [1] stood at 31 µM; in assay [2], 52 µM; in assay [3], 53 µM; in assay [4], 16 µM.
